Activity calls are given as the source filed them. The calls are words filed in the database; no cut-off is given here.
Columns and labels:
[1] = molecular target: T1, Protein cereblon/Son of sevenless homolog 1 (Homo sapiens, UniProt Q07889+Q96SW2); assay: PROTAC activity at CRBN/SOS1 in human A549 cells assessed as half life of SOS1 at 3 uM by immunoblot analysis; type: cell-based
[2] = molecular target: T1, Protein cereblon/Son of sevenless homolog 1; assay: PROTAC activity at CRBN/SOS1 in lenalidomide-pretreated human A549 cells assessed as protein degradation at 1 uM incubated for 24 hrs by immunoblot analysis; type: cell-based
A549 [3] = assay: Effect on GSPT1 in human A549 cells upto 10000 nM incubated for 24 hrs by immunoblot analysis; type: functional, cell-based
[4] = molecular target: GTPase KRas (Homo sapiens) (UniProt P01116); assay: Inhibition of KRAS signalling in serum-starved human A549 cells assessed as decrease in ERK1/2 phosphorylation upto 10000 nM preincubated for 24 hrs followed by EGF stimulation for 1 hr by immunoblot analysis; type: cell-based; details: time 25.0 hrs
[5] = molecular target: T1, Protein cereblon/Son of sevenless homolog 1; assay: PROTAC activity at CRBN/SOS1 in human A549 cells assessed as protein degradation at 0.1 uM incubated for 24 hrs by immunoblot analysis relative to control; type: cell-based
[6] = molecular target: Protein cereblon/Son of sevenless homolog 1 (Homo sapiens, UniProt Q07889+Q96SW2, G12C); assay: PROTAC activity at CRBN/SOS1 in human MIA PaCa-2 cells harboring KRAS G12C mutant assessed as protein degradation by immunoblot analysis; type: cell-based
[7] = molecular target: T1, Protein cereblon/Son of sevenless homolog 1; assay: PROTAC activity at CRBN/SOS1 in human A549 cells assessed as protein degradation at 10 uM incubated for 24 hrs by immunoblot analysis relative to control; type: cell-based
[8] = molecular target: T1, Protein cereblon/Son of sevenless homolog 1; assay: PROTAC activity at CRBN/SOS1 in human A549 cells assessed as protein degradation incubated for 24 hrs by immunoblot analysis; type: cell-based
[9] = molecular target: T1, Protein cereblon/Son of sevenless homolog 1; assay: PROTAC activity at CRBN/SOS1 in human A549 cells assessed as protein degradation at 3 uM by immunoblot analysis; type: cell-based; details: time <= 72.0 hrs, TDE = time-dependent effect
[10] = molecular target: T1, Protein cereblon/Son of sevenless homolog 1; assay: PROTAC activity at CRBN/SOS1 in CHX-pretreated human A549 cells assessed as protein degradation at 3 uM incubated for 12 hrs by immunoblot analysis; type: cell-based
[11] = molecular target: T1, Protein cereblon/Son of sevenless homolog 1; assay: PROTAC activity at CRBN/SOS1 in bafilomycin-pretreated human A549 cells assessed as protein degradation at 1 uM incubated for 24 hrs by immunoblot analysis; type: cell-based
MIA PaCa-2 = assay: Inhibition of colony formation in human MIA PaCa-2 cells upto 30 uM incubated for 14 days by crystal violet staining based analysis; type: functional, cell-based; details: time 14.0 day
[12] = molecular target: T1, Protein cereblon/Son of sevenless homolog 1; assay: PROTAC activity at CRBN/SOS1 in MLN-4924-pretreated human A549 cells assessed as protein degradation at 1 uM incubated for 24 hrs by immunoblot analysis; type: cell-based
[13] = molecular target: T1, Protein cereblon/Son of sevenless homolog 1; assay: PROTAC activity at CRBN/SOS1 in human A549 cells assessed as protein degradation upto 10000 nM incubated for 24 hrs by immunoblot analysis relative to control; type: cell-based
[14] = molecular target: Protein cereblon/Son of sevenless homolog 1 (Homo sapiens, UniProt Q07889+Q96SW2, G12D); assay: PROTAC activity at CRBN/SOS1 in human HPAF-II cells harboring KRAS G12D mutant assessed as protein degradation by immunoblot analysis; type: cell-based
[15] = molecular target: T1, Protein cereblon/Son of sevenless homolog 1; assay: PROTAC activity at 6His-tagged human CRBN TBD domain (318 to 425 residues) expressed in Escherichia coli BL21(DE3)/GST-tagged recombinant human SOS1 (569 to 1049 residues) expressed in Escherichia coli BL21(DE3) protein-protein interaction assessed as ternary complex formation incubated for 1 hr by AlphaScreen assay
[16] = molecular target: T1, Protein cereblon/Son of sevenless homolog 1; assay: PROTAC activity at CRBN/SOS1 in MG-132-pretreated human A549 cells assessed as protein degradation at 1 uM incubated for 24 hrs by immunoblot analysis; type: cell-based
A549 [17] = assay: Effect on SOS2 in human A549 cells upto 10000 nM incubated for 24 hrs by immunoblot analysis; type: functional, cell-based
[18] = molecular target: T1, Protein cereblon/Son of sevenless homolog 1; assay: PROTAC activity at CRBN/SOS1 in human A549 cells assessed as protein degradation at 3 uM incubated for 24 to 72 hrs by immunoblot analysis; type: cell-based; details: time 24-72 hrs
[19] = molecular target: T1, Protein cereblon/Son of sevenless homolog 1; assay: PROTAC activity at CRBN/SOS1 in BI3406-pretreated human A549 cells assessed as protein degradation at 1 uM incubated for 24 hrs by immunoblot analysis; type: cell-based
[20] = molecular target: T1, Protein cereblon/Son of sevenless homolog 1; assay: PROTAC activity at CRBN/SOS1 in human A549 cells assessed as half life of SOS1 at 3 uM incubated for 24 hrs by immunoblot analysis; type: cell-based
[21] = molecular target: T1, Protein cereblon/Son of sevenless homolog 1; assay: PROTAC activity at CRBN/SOS1 in human A549 cells assessed as protein degradation at 10 uM incubated for 24 hrs by immunoblot analysis; type: cell-based

Structure (SMILES): COc1cc2nc(C)nc(N[C@H](C)c3cc(N)cc(C(F)(F)F)c3)c2cc1O[C@H]1CCN(C(=O)CCCCCCCC(=O)Nc2cccc3c2CN(C2CCC(=O)NC2=O)C3=O)C1 (stereo partly drawn)
- T1/2 [1]: 22.5 h
- Activity [2]: inactive
- Activity (A549 [3]): inactive
- inhibition [4]: Active
- Activity [5]: 68%
- DC50 [6]: 0.54 µM
- Activity [7]: 69%
- DC50 [8]: 0.209 µM
- Activity ([8]; dose <= 10000.0 µM): Dose-Dependent Effect
- Activity [9]: Tde
- Activity [10]: Active
- Activity [11]: Active
- inhibition (MIA PaCa-2): Active
- Activity [12]: inactive
- Emax [13]: > 80%
- DC50 [14]: 0.354 µM
- Activity [15]: Active
- Activity [16]: inactive
- Activity (A549 [17]): inactive
- Activity [18]: Active
- Activity [19]: inactive

Structure (SMILES): C[C@@H]1C[C@@H]([C@H](O)CC2CC(=O)NC(=O)C2)C(=O)[C@@H](C)C1
- T1/2 [20]: > 24 h

Structure (SMILES): COc1cc2nc(C)nc(N[C@H](C)c3cc(N)cc(C(F)(F)F)c3)c2cc1O[C@H]1CCN(C(=O)CCCCCCCC(=O)Nc2cccc3c2CN(C2CCC(=O)N(C)C2=O)C3=O)C1 (stereo partly drawn)
- Activity [21]: inactive
